Experimental findings from patent US9549921B2, “Heterocyclic compounds and methods of use thereof for the treatment of hepatitis C” (priority 2014, dated 2017) are described below.

One assay deals with HCV replicon genotype 1b. As to the kind of experiment: HCV replicon assay, genotype 1b (cell ELISA for NS3/4A). The class given is cell-based, hepatitis C virus. How it is done: (§1) The HCV NS5B inhibitory activity of the present compounds may be tested using assays known in the art. The HCV NS5B polymerase inhibitors described herein have activities in a genotype 1b replicon assay as described in the Examples. The assay is performed by incubating a replicon harboring cell-line in the presence of inhibitor for a set period of time and measuring the effect of the inhibitor on HCV replicon replication either directly by quantifying replicon RNA level, or indirectly by measuring enzymatic activity of a co-encoded reporter enzyme such as luciferase or β-lactamase. By performing a series of such measurements at different inhibitor concentrations, the effective inhibitory concentration of the inhibitor (EC50 or EC90) is determined. See Jan M. Vrolijk et al., A replicons-based bioassay for the measurement of interferons in patients with chronic hepatitis C, 110 J. VIROLOGICAL METHODS 201 (2003). Such assays may also be run in an automated format for high through-put screening. See Paul Zuck et al., A cell-based β-lactamase reporter gene assay for the identification of inhibitors of hepatitis C virus replication, 334 ANALYTICAL BIOCHEMISTRY 344 (2004).
(§2) Measurement of inhibition by compounds was performed using the HCV replicon system. Several different replicons encoding different HCV genotypes or mutations were used. In addition, potency measurements were made using different formats of the replicon assay, including different ways of measurements and different plating formats. See Jan M. Vrolijk et al., A replicons-based bioassay for the measurement of interferons in patients with chronic hepatitis C, 110 J. VIROLOGICAL METHODS 201 (2003); Steven S. Carroll et al., Inhibition of Hepatitis C Virus RNA Replication by 2′-Modified Nucleoside Analogs, 278(14) J. BIOLOGICAL CHEMISTRY 11979 (2003). However, the underlying principles are common to all of these determinations, and are outlined below.
(§3) Stable neomycin phosphotransferase encoding replicons-harboring cell lines were used, so all cell lines were maintained under G418 selection prior to the assay. Potency was deteremined using a cell ELISA assay with an antibody to the replicons encoded NS3/4a protease. See Caterina Trozzi et al., In Vitro Selection and Characterization of Hepatitis C Virus Serine Protease Variants Resistant to an Active-Site Peptide Inhibitor, 77(6) J. Virol. 3669 (2003). To initiate an assay, replicon cells were plated in the presence of a dilution series of test compound in the absence of G418. Typically, the assays were performed in a 96-well plate formate for manual operation, or a 384-well plate format for automated assay. Replicon cells and compound were incubated for 96 hours. At the end of the assay, cells were washed free of media and compound, and the cells were then lysed. RNA was quantified indirectly through detection of replicon-encoded NS3/4A protein levels, through an ELISA-based assay with an antibody specific for NS3/4A. IC50 determinations were calculated as a percentage of a DMSO control by fitting the data to a four-parameter fit function and the data obtained is provided in the table below.
(§4) Data for selected compounds of the present invention was obtained for genotypes 1a and 1b using this method and is provided in the table below: […]

The next assay concerns HCV replicon genotype 1a. Put plainly: HCV replicon assay, genotype 1a (cell ELISA for NS3/4A). The class given is cell-based, hepatitis C virus. How it is done:
as §1, §2, §3, §4
A general note: In antiviral work, replicon cells carry a viral genome segment that copies itself.

Setting [1] is: Hepatitis C virus, 96 h, read-out: 1b IC50 (nM), HCV genotype 1b replicon cells, 96 hours incubation, NS3/4A ELISA readout, % of DMSO control.
Where [2] appears, read: Hepatitis C virus, 96 h, read-out: 1a IC50 (nM), HCV genotype 1a replicon cells, 96 hours incubation, NS3/4A ELISA readout, % of DMSO control.
The mark [3] stands for this setting: read-out: 1b IC50, HCV genotype 1b replicon cells, 96 hours incubation, NS3/4A ELISA readout, % of DMSO control.
[4] abbreviates: read-out: 1a IC50, HCV genotype 1a replicon cells, 96 hours incubation, NS3/4A ELISA readout, % of DMSO control.

Like-named read-outs stand apart in the source and are kept apart here.

Turning to `CNC(=O)c1c(-c2ccc(F)cc2)oc2cc(N(C)S(C)(=O)=O)c([C@@H]3CCCN(C(=O)c4nc5ccc(F)cc5s4)C3)cc12` [Example 75, 5-{1-[(6-fluoro-1,3-benzothiazol-2-yl)carbonyl]piperidin-3-yl}-2-(4-fluorophenyl)-N-methyl-6-[methyl(methylsulfonyl)amino]-1-benzofuran-3-carboxamide], the IC50 in the assay with HCV replicon genotype 1b (setting [1]) turned out to be 12 nM; with HCV replicon genotype 1a (setting [2]), 72.3 nM.

With `CNC(=O)c1c(-c2ccc(F)cc2)oc2cc(N(C)S(C)(=O)=O)c([C@@H]3CCCN(C(=O)c4[nH]c5c(F)cccc5c4C)C3)cc12` [Example 37, (S)-5-(1-(7-fluoro-3-methyl-1H-indole-2-carbonyl)piperidin-3-yl)-2-(4-fluorophenyl)-N-methyl-6-(N-methylmethylsulfonamido)benzofuran-3-carboxamide], the IC50 amounted to 92.8 nM in the assay with HCV replicon genotype 1b (setting [1]) and 162 nM with HCV replicon genotype 1a (setting [2]).

For the compound `CNC(=O)c1c(-c2ccc(F)cc2)oc2cc(N(C)S(C)(=O)=O)c([C@@H]3CCCN(S(=O)(=O)Cc4ccccc4)C3)cc12` [Example 121, 5-[(3S)-1-(benzylsulfonyl)piperidin-3-yl]-2-(4-fluorophenyl)-N-methyl-6-[methyl(methylsulfonyl)amino]-1-benzofuran-3-carboxamide], the IC50 came to 23.8 nM with HCV replicon genotype 1b (setting [1]) and 47.5 nM in the assay with HCV replicon genotype 1a (setting [2]).

Regarding `CNC(=O)c1c(-c2ccc(F)cc2)oc2cc(N(C)S(C)(=O)=O)c([C@@H]3CCCN(C(=O)c4ccc(F)cc4)C3)cc12` (single isomer, unassigned) [Example 20, 5-(1-(4-fluorobenzoyl)piperidin-3-yl)-2-(4-fluorophenyl)-N-methyl-6-(N-methylmethylsulfonamido)benzofuran-3-carboxamide], the figures for the IC50 in the assay on HCV replicon genotype 1b (setting [3]) and in the assay with HCV replicon genotype 1a (setting [4]) were 46.9 nM and 48 nM, respectively.

As to `CCn1c(C(=O)N2CCC[C@H](c3cc4c(C(=O)NC)c(-c5ccc(F)cc5)oc4cc3N(C)S(C)(=O)=O)C2)cc2c(F)cccc21` [Example 34, (R)-5-(1-(1-ethyl-4-fluoro-1H-indole-2-carbonyl)piperidin-3-yl)-2-(4-fluorophenyl)-N-methyl-6-(N-methylmethylsulfonamido)benzofuran-3-carboxamide], the IC50 in the assay on HCV replicon genotype 1b (setting [1]) came to 65.3 nM; in the assay on HCV replicon genotype 1a (setting [2]) it was 84.1 nM.

Consider `CNC(=O)c1c(-c2ccc(F)cc2)oc2cc(N(C)S(C)(=O)=O)c([C@H]3CCCN(C(=O)c4c(C)c5cc(F)ccc5n4C)C3)cc12` [Example 86, 5-{(3R)-1-[(5-fluoro-1,3-dimethyl-1H-indol-2-yl)carbonyl]piperidin-3-yl}-2-(4-fluorophenyl)-N-methyl-6-[methyl(methylsulfonyl)amino]-1-benzofuran-3-carboxamide], for which the IC50 in the assay on HCV replicon genotype 1b (setting [1]) was 115 nM; in the assay on HCV replicon genotype 1a (setting [2]), 234 nM.

On to `CNC(=O)c1c(-c2ccc(F)cc2)oc2cc(N(C)S(C)(=O)=O)c([C@H]3CCCN(C(=O)c4cc5cc(F)ccc5[nH]4)C3)cc12` [Example 90, (R)-5-(1-(5-fluoro-1H-indole-2-carbonyl)piperidin-3-yl)-2-(4-fluorophenyl)-N-methyl-6-(N-methylmethylsulfonamido)benzofuran-3-carboxamide], for which the IC50 turned out to be 20.7 nM with HCV replicon genotype 1b (setting [1]) and 41.6 nM with HCV replicon genotype 1a (setting [2]).

On to `CNC(=O)c1c(-c2ccc(F)cc2)oc2cc(N(C)S(C)(=O)=O)c([C@@H]3CCCN(c4nc5ccccc5n4C)C3)cc12` (single isomer, unassigned) [Example 44, 2-(4-fluorophenyl)-N-methyl-5-(1-(1-methyl-1H-benzo[d]imidazol-2-yl)piperidin-3-yl)-6-(N-methylmethylsulfonamido)benzofuran-3-carboxamide], for which the IC50 was 82.4 nM in the assay on HCV replicon genotype 1b (setting [3]) and 71 nM in the assay on HCV replicon genotype 1a (setting [4]).

`CNC(=O)c1c(-c2ccc(F)cc2)oc2cc(N(C)S(C)(=O)=O)c([C@@H]3CCCN(S(=O)(=O)Cc4ccccn4)C3)cc12` [Example 123, 2-(4-fluorophenyl)-N-methyl-6-[methyl(methylsulfonyl)amino]-5-{(3S)-1-[(pyridin-2-ylmethyl)sulfonyl]piperidin-3-yl}-1-benzofuran-3-carboxamide]: the IC50 with HCV replicon genotype 1b (setting [1]) is 29.8 nM; in the assay on HCV replicon genotype 1a (setting [2]) it was 106 nM.
